Data as given in the NIST ThermoML archive (doi:10.1016/j.jct.2018.09.023).
Numbers after ± are expanded uncertainties.

What was measured:
[1] = activity coefficient (dimensionless); of the first substance listed, at infinite dilution; xn = mol fraction of the nth substance listed; details: 101.33 kPa, Liquid, Chromatography, x1 = 0
[2] = 101.3 kPa, Liquid, Vibrating tube method

| activity coefficient ([1]; 323.15 K) | activity coefficient ([1]; 333.15 K) | activity coefficient ([1]; 343.15 K) | activity coefficient ([1]; 353.15 K) | activity coefficient ([1]; 363.15 K) | mass density ([2]; 323.15 K) [kg/m3] | mass density ([2]; 333.15 K) [kg/m3] | mass density ([2]; 343.15 K) [kg/m3] | mass density ([2]; 353.15 K) [kg/m3] | mass density ([2]; 363.15 K) [kg/m3] | SMILES |
| --- | --- | --- | --- | --- | --- | --- | --- | --- | --- | --- |
| 1.01 ± 0.1 | 1.05 ± 0.11 | 1.11 ± 0.11 | 1.17 ± 0.12 | 1.23 ± 0.13 | – | – | – | – | – | C1COCCO1 [1,4-dioxane] + CCC[n+]1ccn(C)c1.[Br-] |
| – | – | – | – | – | 1317.74 ± 2.5 | 1310.86 ± 2.5 | 1304.04 ± 2.4 | 1297.27 ± 2.4 | 1290.33 ± 2.4 | CCC[n+]1ccn(C)c1.[Br-] [1-methyl-3-propylimidazolium bromide] |
| 115 ± 12 | 111 ± 12 | 108 ± 11 | 104 ± 11 | 101 ± 11 | – | – | – | – | – | CC(C)CC(C)(C)C [2,2,4-trimethylpentane] + CCC[n+]1ccn(C)c1.[Br-] |
| 0.426 ± 0.049 | 0.406 ± 0.047 | 0.39 ± 0.046 | 0.378 ± 0.045 | 0.368 ± 0.044 | – | – | – | – | – | CC(C)CO [2-methyl-1-propanol] + CCC[n+]1ccn(C)c1.[Br-] |
| 0.62 ± 0.066 | 0.587 ± 0.063 | 0.564 ± 0.061 | 0.548 ± 0.059 | 0.531 ± 0.058 | – | – | – | – | – | CC(C)CCO [3-methylbutan-1-ol] + CCC[n+]1ccn(C)c1.[Br-] |
| 0.37 ± 0.04 | 0.39 ± 0.05 | 0.41 ± 0.05 | 0.44 ± 0.05 | 0.48 ± 0.05 | – | – | – | – | – | CC#N [acetonitrile] + CCC[n+]1ccn(C)c1.[Br-] |
| 1.7 ± 0.18 | 1.79 ± 0.19 | 1.89 ± 0.2 | 2 ± 0.21 | 2.11 ± 0.22 | – | – | – | – | – | c1ccccc1 [benzene] + CCC[n+]1ccn(C)c1.[Br-] |
| 0.438 ± 0.05 | 0.417 ± 0.048 | 0.402 ± 0.047 | 0.388 ± 0.046 | 0.379 ± 0.045 | – | – | – | – | – | CCCCO [butan-1-ol] + CCC[n+]1ccn(C)c1.[Br-] |
| 0.52 ± 0.057 | 0.5 ± 0.055 | 0.485 ± 0.054 | 0.471 ± 0.053 | 0.462 ± 0.052 | – | – | – | – | – | CCC(C)O (stereo not given) [butan-2-ol] + CCC[n+]1ccn(C)c1.[Br-] |
| 66.2 ± 7 | 64.5 ± 6.8 | 62.9 ± 6.6 | 61.6 ± 6.5 | 60.4 ± 6.4 | – | – | – | – | – | C1CCCCC1 [cyclohexane] + CCC[n+]1ccn(C)c1.[Br-] |
| 21.7 ± 2.3 | 20.6 ± 2.2 | 19.7 ± 2.1 | 18.8 ± 2 | 18.1 ± 1.9 | – | – | – | – | – | C1=CCCCC1 [cyclohexene] + CCC[n+]1ccn(C)c1.[Br-] |
| 130 ± 14 | 124 ± 13 | 118 ± 12 | 112 ± 12 | 108 ± 11 | – | – | – | – | – | CCCCCCCCCC [decane] + CCC[n+]1ccn(C)c1.[Br-] |
| 0.27 ± 0.04 | 0.29 ± 0.04 | 0.31 ± 0.04 | 0.34 ± 0.04 | 0.38 ± 0.05 | – | – | – | – | – | ClCCl [dichloromethane] + CCC[n+]1ccn(C)c1.[Br-] |
| 0.208 ± 0.033 | 0.197 ± 0.033 | 0.19 ± 0.032 | 0.184 ± 0.032 | 0.18 ± 0.032 | – | – | – | – | – | CCO [ethanol] + CCC[n+]1ccn(C)c1.[Br-] |
| 3.68 ± 0.39 | 3.86 ± 0.41 | 4.07 ± 0.43 | 4.27 ± 0.45 | 4.46 ± 0.47 | – | – | – | – | – | CCOC(C)=O [ethyl acetate] + CCC[n+]1ccn(C)c1.[Br-] |
| 5.48 ± 0.58 | 5.67 ± 0.6 | 5.84 ± 0.61 | 6.01 ± 0.63 | 6.19 ± 0.65 | – | – | – | – | – | CCc1ccccc1 [ethylbenzene] + CCC[n+]1ccn(C)c1.[Br-] |
| 106 ± 11 | 102 ± 11 | 98.5 ± 10 | 95.4 ± 10 | 92.5 ± 9.7 | – | – | – | – | – | CCCCCCC [heptane] + CCC[n+]1ccn(C)c1.[Br-] |
| 102 ± 11 | 98.9 ± 10 | 95.6 ± 10 | 92.5 ± 9.7 | 89.9 ± 9.5 | – | – | – | – | – | CCCCCC [hexane] + CCC[n+]1ccn(C)c1.[Br-] |
| 0.112 ± 0.03 | 0.108 ± 0.03 | 0.106 ± 0.03 | 0.103 ± 0.03 | 0.102 ± 0.03 | – | – | – | – | – | CO [methanol] + CCC[n+]1ccn(C)c1.[Br-] |
| 82.3 ± 8.7 | 79.9 ± 8.4 | 77.5 ± 8.2 | 75.2 ± 7.9 | 73.2 ± 7.7 | – | – | – | – | – | CC1CCCCC1 [methylcyclohexane] + CCC[n+]1ccn(C)c1.[Br-] |
| 119 ± 13 | 115 ± 12 | 110 ± 12 | 106 ± 11 | 103 ± 11 | – | – | – | – | – | CCCCCCCCC [nonane] + CCC[n+]1ccn(C)c1.[Br-] |
| 111 ± 12 | 107 ± 11 | 104 ± 11 | 100 ± 11 | 97.7 ± 10 | – | – | – | – | – | CCCCCCCC [octane] + CCC[n+]1ccn(C)c1.[Br-] |
| 0.692 ± 0.072 | 0.651 ± 0.069 | 0.619 ± 0.066 | 0.592 ± 0.063 | 0.575 ± 0.062 | – | – | – | – | – | CCCCCO [pentan-1-ol] + CCC[n+]1ccn(C)c1.[Br-] |
| 0.279 ± 0.038 | 0.268 ± 0.037 | 0.258 ± 0.036 | 0.25 ± 0.036 | 0.244 ± 0.035 | – | – | – | – | – | CCCO [propan-1-ol] + CCC[n+]1ccn(C)c1.[Br-] |
| 0.373 ± 0.044 | 0.359 ± 0.043 | 0.344 ± 0.042 | 0.334 ± 0.042 | 0.326 ± 0.041 | – | – | – | – | – | CC(C)O [propan-2-ol] + CCC[n+]1ccn(C)c1.[Br-] |
| 1.83 ± 0.19 | 1.92 ± 0.2 | 2 ± 0.21 | 2.08 ± 0.22 | 2.17 ± 0.23 | – | – | – | – | – | C=Cc1ccccc1 [styrene] + CCC[n+]1ccn(C)c1.[Br-] |
| 2.11 ± 0.22 | 2.19 ± 0.23 | 2.28 ± 0.24 | 2.37 ± 0.25 | 2.47 ± 0.26 | – | – | – | – | – | C1CCOC1 [tetrahydrofuran] + CCC[n+]1ccn(C)c1.[Br-] |
| 0.13 ± 0.03 | 0.15 ± 0.03 | 0.16 ± 0.03 | 0.18 ± 0.03 | 0.2 ± 0.03 | – | – | – | – | – | ClC(Cl)Cl [trichloromethane] + CCC[n+]1ccn(C)c1.[Br-] |

| SMILES | activity coefficient ([1]; 323.15 K) | activity coefficient ([1]; 333.15 K) | activity coefficient ([1]; 343.15 K) | activity coefficient ([1]; 353.15 K) | activity coefficient ([1]; 363.15 K) | mass density ([2]; 323.15 K) [kg/m3] | mass density ([2]; 333.15 K) [kg/m3] | mass density ([2]; 343.15 K) [kg/m3] | mass density ([2]; 353.15 K) [kg/m3] | mass density ([2]; 363.15 K) [kg/m3] |
| --- | --- | --- | --- | --- | --- | --- | --- | --- | --- | --- |
| Cc1ccccc1C [1,2-dimethylbenzene] + CCC[n+]1ccn(C)c1.[Br-] | 4.19 ± 0.44 | 4.3 ± 0.45 | 4.49 ± 0.47 | 4.71 ± 0.49 | 4.97 ± 0.52 | – | – | – | – | – |
| Cc1cccc(C)c1 [1,3-dimethylbenzene] + CCC[n+]1ccn(C)c1.[Br-] | 5.91 ± 0.62 | 6.04 ± 0.63 | 6.18 ± 0.65 | 6.33 ± 0.67 | 6.47 ± 0.68 | – | – | – | – | – |
| Cc1ccc(C)cc1 [1,4-dimethylbenzene] + CCC[n+]1ccn(C)c1.[Br-] | 5.65 ± 0.59 | 5.8 ± 0.61 | 5.95 ± 0.63 | 6.11 ± 0.64 | 6.3 ± 0.66 | – | – | – | – | – |
| CC(C)=O [acetone] + CCC[n+]1ccn(C)c1.[Br-] | 1.06 ± 0.11 | 1.14 ± 0.12 | 1.21 ± 0.12 | 1.29 ± 0.13 | 1.37 ± 0.14 | – | – | – | – | – |
| ClC(Cl)(Cl)Cl [tetrachloromethane] + CCC[n+]1ccn(C)c1.[Br-] | 0.78 ± 0.08 | 0.86 ± 0.09 | 0.96 ± 0.1 | 1.07 ± 0.11 | 1.17 ± 0.12 | – | – | – | – | – |
| Cc1ccccc1 [toluene] + CCC[n+]1ccn(C)c1.[Br-] | 2.95 ± 0.31 | 3.11 ± 0.33 | 3.33 ± 0.35 | 3.5 ± 0.37 | 3.72 ± 0.39 | – | – | – | – | – |
